Experimental data from BindingDB's records for doi:10.1021/acs.jmedchem.5b01913 (Dalian University of Technology, 2016).
pIC50: −log10 of the molar value.

Legend:
[1] = Inhibition of Bcl2 in human DMS53 cells assessed as growth inhibition
[2] = Inhibition of MDM2 in human HCT116 p53+/+ cells assessed as growth inhibition

pIC50 [1]: 5.30 | pIC50 [2]: 5.30
SMILES: CC(C)Oc1ccc(C(=O)Nc2c(C(=O)O)nn(-c3ccc(Oc4ccccc4)cc3)c2-c2ccc(OC(C)C)cc2)cc1
